The values below are quoted from earlier work in article PMC6428196 (Psychopharmacology, 2018).

Structures are written as SMILES.

For data set [1] the following is noted: in vivo.
The conditions of data set [2]: human, in vivo, sc.
The subject of another data set is baboons. The following applies: ref Holtyn et al. 2017.

As for `CCCCCCCCCCCCCCCC(=O)N[C@@H](CCC(=O)NCCCC[C@H](NC(=O)[C@H](C)NC(=O)[C@H](C)NC(=O)[C@H](CCC(N)=O)NC(=O)CNC(=O)[C@H](CCC(=O)O)NC(=O)[C@H](CC(C)C)NC(=O)[C@H](Cc1ccc(O)cc1)NC(=O)[C@H](CO)NC(=O)[C@H](CO)NC(=O)[C@@H](NC(=O)[C@H](CC(=O)O)NC(=O)[C@H](CO)NC(=O)[C@@H](NC(=O)[C@H](Cc1ccccc1)NC(=O)[C@@H](NC(=O)CNC(=O)[C@H](CCC(=O)O)NC(=O)[C@H](C)NC(=O)[C@@H](N)Cc1cnc[nH]1)[C@@H](C)O)[C@@H](C)O)C(C)C)C(=O)N[C@@H](CCC(=O)O)C(=O)N[C@@H](Cc1ccccc1)C(=O)N[C@H](C(=O)N[C@@H](C)C(=O)N[C@@H](Cc1c[nH]c2ccccc12)C(=O)N[C@@H](CC(C)C)C(=O)N[C@H](C(=O)N[C@@H](CCCNC(=N)N)C(=O)NCC(=O)N[C@@H](CCCNC(=N)N)C(=O)NCC(=O)O)C(C)C)[C@@H](C)CC)C(=O)O` [liraglutide], the “Brain penetration after systemic administration” value in data set [1] is recorded as “penetrate the brain”. The Bioavailability in data set [2] is listed as 55%.

Take `O=C1CC[C@@]2(O)[C@H]3Cc4ccc(O)c5c4[C@@]2(CCN3CC2CC2)[C@H]1O5` [naltrexone]: in the data set on baboons, the Drinking entry is given as “reduced drinking to a degree comparable to our liraglutide effect”.
